1 molecule from patent publication US10988792B2, “Methods for antimicrobial resistance determination” (bioMerieux, Inc., priority 2009, dated 2021) can be followed below.

The subject of the assay is S. aureus isolates. Put plainly: Vitek AST cards MIC. The assay is classed as cell-based. Conditions: 3/5 strains classified as benzyl-penicillin resistant and oxacillin sensitive by Vitek cards. As for the experimental part:
Twenty different strains of S. aureus (10 MRSA and 10 MSSA strains, confirmed with cefoxitin discs and Vitek-2) were propagated. A loopful of growth (1 μL) was removed from 24-hour plates and suspended in BacT/ALERT SA culture media (8 ml in a glass screw-capped tube). The tubes were vortexed well and incubated at 36° C. for 6 hours. The OD of each suspension was measured at 660 nm and adjusted to approximately the same density (0.50-0.75 OD; sample #12166 was only 0.28). 50 μM BOCILLIN™-FL (0.1 ml) was placed into each of 20 labeled microfuge tubes. A sample of each strain (0.9 ml) was added to each tube, mixed, and incubated at 37° C. for 30 minutes. The reaction mixture was then removed and added to a second set of tubes containing 0.2 ml of an oil blend (1.000 part type DF immersion oil plus 0.875 part Drakeol 5 mineral oil). The tubes were centrifuged for 2 minutes at 10,000 rpm in an A-8-11 rotor (Eppendorf 5417R). The supernatant and most of the oil was aspirated with a vacuum device. The remaining oil was removed using a Gilson P200 tip and the pellet was resuspended in 100 μl PBS. The cells were transferred to an acrylic cuvette containing 3 ml PBS and read in the FluoroLog 3 system using the FluoroScan “Bocillin” points listed in Table 3. Additionally, Vitek AST cards were run on each of the 20 isolates (from the same 24 hour plates).

For the molecule `Cc1onc(-c2ccccc2)c1C(=O)N[C@@H]1C(=O)N2[C@@H]1SC(C)(C)[C@@H]2C(=O)O` [oxacillin], the oxacillin MIC turned out to be 0.5 µg/mL.
